From US20190225644A1, “MRNA CAP ANALOGS AND METHODS OF MRNA CAPPING” (ModernaTX, Inc., priority 2015, published 2019)
Several values for one entry are separate records, joined by “and”; a condition that tells them apart may be missing. Equal values may be shown once. Read-outs that look alike come from different tables or passages of the source.

Experiments:
T7 RNA Polymerase = T7 RNA Polymerase (Escherichia phage T7, UniProt P00573); assay: Cotranscriptional capping of hEPO mRNA by in vitro transcription (capping fraction); assay type: biochemical; conditions: hEPO mRNA used in the in vivo assay
Chain of T7 RNA Polymerase (P00573 whole entry): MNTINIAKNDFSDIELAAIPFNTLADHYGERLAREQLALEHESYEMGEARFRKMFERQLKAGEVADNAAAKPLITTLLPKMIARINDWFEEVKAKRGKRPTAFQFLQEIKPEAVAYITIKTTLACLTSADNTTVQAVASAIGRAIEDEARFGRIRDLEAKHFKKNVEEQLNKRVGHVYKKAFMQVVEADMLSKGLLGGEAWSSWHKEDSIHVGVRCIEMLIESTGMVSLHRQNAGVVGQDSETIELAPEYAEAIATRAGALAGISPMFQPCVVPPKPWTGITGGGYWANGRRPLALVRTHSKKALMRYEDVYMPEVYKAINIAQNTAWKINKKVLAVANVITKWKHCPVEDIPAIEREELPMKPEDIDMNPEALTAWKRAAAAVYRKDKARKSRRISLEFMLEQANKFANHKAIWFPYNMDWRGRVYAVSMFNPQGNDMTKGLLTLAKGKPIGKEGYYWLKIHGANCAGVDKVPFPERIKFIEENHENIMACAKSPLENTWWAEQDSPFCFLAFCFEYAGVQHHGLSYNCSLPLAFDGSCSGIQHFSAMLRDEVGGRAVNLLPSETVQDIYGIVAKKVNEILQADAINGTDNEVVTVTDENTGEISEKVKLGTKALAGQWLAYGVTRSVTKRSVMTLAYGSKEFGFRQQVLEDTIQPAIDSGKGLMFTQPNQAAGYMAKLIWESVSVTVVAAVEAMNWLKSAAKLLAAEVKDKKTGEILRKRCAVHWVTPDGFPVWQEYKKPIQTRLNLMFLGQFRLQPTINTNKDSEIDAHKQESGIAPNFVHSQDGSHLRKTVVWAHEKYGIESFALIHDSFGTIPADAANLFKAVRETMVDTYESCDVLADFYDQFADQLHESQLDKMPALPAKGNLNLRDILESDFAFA
Method: The target mRNAs are prepared following IVT Reaction Protocol—Cotranscriptional capping described herein.
Ratio of A:U:C:G varies between 1:1:1:0.1 and 1:1:1:1, with the cap added in 10-fold excess to G. • 2. T7 RNA polymerase is added after other components except for water. • 3. Water is added for a total reaction volume of 100 uL. • 4. The mixture is mixed well and spun down in a benchtop centrifuge for 1 minute. • 5. The cocktail is incubated at 37 degrees for 4 hours. • 6. 2.5 uL of RNase free DNase I is added. • 7. The cocktail is incubated at 37° C. for 45 minutes.
As described in this Example, each of A, U, C, and G includes both unmodified and modified NTP. After the IVT reaction is complete, the mixture is cleaned using membrane purification (MegaClear or equivalent), and Oligo dT. Sample concentration is determined using a spectrophotometer, and degradation is quantitated using a bioanalyzer.

HeLa Lysate [1] = assay: Cell free translation assay, mCitrine mRNA carrying the cap analogs; assay type: biochemical; conditions: 5-methoxy uridine modRNA
Method: (§1) The in vitro translation assay was conducted with the HeLa 1-step coupled IVT kit (ThermoFisher Scientific, Waltham, Mass.) according to the manufacturer's instructions to assess performance of new cap analogs as free compounds or as an integral part of capped mRNA. Cap analogs with affinity to eIF4E protein may reduce protein synthesis rate in cell-free translation. Further, RNAs containing such cap analogs (“Cap-modRNA”) show different potency of protein synthesis in cell-free translation.
The modified RNAs (“modRNAs”) of eGFP and mCitrine-degron, harboring chemical modifications on either the CAP structures, selected ribose units and/or the bases, were diluted in sterile nuclease-free water to a final amount of 500 ng in 5 uL. This volume was added to 20 uL of freshly prepared HeLa Lysate. The in vitro translation reaction was done in a standard 96-well round bottom plate (Corning, Corning, N.Y.), covered with an self-adhesive fluorescence-compatible seal (BioRad, Hercules, Calif.) at 30° C. inside the plate reader Cytation 3 (BioTek, Winooski, Vt.).
The fluorescent signal per reaction increased over time and is considered proportional to the occurring protein synthesis. Each cell-free translation reaction was monitored for 120-180 min with the following settings: eGFP protein—ex. 485 nm, em. […] 545, gain 70 or 80. The height of the reading head was set to 1 mm above the plate and a reading speed of one per sample every 17 seconds. The results of modRNAs with various caps are illustrated in FIGS. 3A-3B.
(§2) Cell free translation assays were also conducted using modRNAs comprises 5-methoxy uridine, which replaces each uridine in the RNA sequence, except otherwise specified. The results are shown in FIGS. 5A-5B and 6A-6B, and Tables 12 and 13. Table 12 discloses the measured mCitrine levels after 3 hours of a cell-free translation assay.

eIF4E [2] = molecular target: T1, eIF4E (Homo sapiens, UniProt P06730); assay: Binding affinities to eIF4E using surface plasmon resonance (SPR)
T1 sequence (P06730 32-217): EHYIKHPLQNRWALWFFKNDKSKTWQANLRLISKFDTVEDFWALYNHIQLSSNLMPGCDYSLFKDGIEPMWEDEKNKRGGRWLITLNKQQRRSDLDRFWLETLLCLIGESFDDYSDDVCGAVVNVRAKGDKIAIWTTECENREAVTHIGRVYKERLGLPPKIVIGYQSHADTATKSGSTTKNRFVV
Method: (§3) A sensor chip SA (GE Healthcare) is docked into a Biacore 3000 instrument.
(§4) Compound concentration series are injected over the immobilized protein serially in increasing concentration. Interaction models are fitted globally to the experimental traces, enabling determination of Kd or KD (binding affinity; unit: M) and possibly kon (on-rate, calculated from the association phase; unit: M^−1s^−1) and koff (off-rate, calculated from the dissociation phase; unit: s^−1).
(§5) A sensor chip (SAD5001 or SA) was docked into a Biacore 3000 instrument, washed with 50 mM NaOH, 1M NaCl. Protein eIF4E was diluted in running buffer (50 mM HEPES, 150 mM KCl, 10 mM MgCl2, 2 mM TCEP) to ˜1 μM. The diluted protein solution was injected for 300-600 seconds. Typical capture levels were 5000-6000 RU.
(§6) Test compounds were solubilized in ddH2O or DMSO to 10 mM. 100 μM stocks were prepared by 100-fold dilution in running buffer (50 mM HEPES, 150 mM KCl, 10 mM MgCl2). Assay was run with or without 1% DMSO.
(§7) Data were analyzed in GeneData. Curve fit was accepted or rejected by looking at the resulting sensorgrams and steady state fits.
(§8) Assay has been validated using running buffer with and without DMSO. […] Further, newly captured protein stabilizes slowly, leading to negative responses during the dissociation phase for compounds injected over newly captured protein.

eIF4E [3] = molecular target: T1, eIF4E; assay: biochemical
Method: as §3, §4, §5, §6, §7, §8

HeLa Lysate [4] = assay: Cell free translation assay, hEPO mRNA carrying the cap analogs; assay type: biochemical; conditions: 5-methoxy uridine modRNA
Method: In FIG. 5A, “mod mRNA” refers to a modified mRNA comprising N1-methyl pseudouridine, which replaces each uridine in the RNA sequence. FIG. 5 B presents the results of a cell free translation assay using mRNAs carrying different cap analogs, normalized to capping and concentration of each capped mRNA (see also Table 13).
as §1, §2
Table 13 discloses the hEPO levels after 3 hours of a cell-free translation assay.

HeLa Lysate [5] = assay: Cap competition assay in kinetic cell free in vitro translation (free cap analogs); assay type: biochemical; conditions: free cap analog 0-100 uM against Cap1-tipped eGFP modRNA, fluorescence plateau
Method: as §1
For competition assays, the total volume of the cell-free translation reaction was increased to 27.8 uL by addition of either water or diluted free CAP analogs in water. The stock concentration of the free CAP analogs was 1 mM. With two-fold dilutions in water, the concentration was reduced sequentially. […] The CAP analogs used in this study were either commercial products serving as reference material (TriLink, San Diego, Calif.) or compounds disclosed herein. It is hypothesized that the small molecule cap analogs interfere with the assembly of the “closed loop” in a Kd-dependent fashion.
After the fluorescent signal in cell-free translation reaction reached a stable plateau, absolute values thereof were transferred to a statistical analysis program (GraphPad Software, La Jolla, Calif.) and curve fitting or IC50 calculations were derived with settings according to the instructions of the manufacturer.
The results from the cap competition assays are illustrated in FIGS. 1A-1C and 2A-2D. In this study, each of the modRNAs used comprises 1-methyl-pseudouridine, which replaces each uridine in the RNA sequence and 5-methyl cytidine, which replaces each cytidine in the RNA sequence. Further, Table 11 includes the IC50 values of certain compounds of the disclosure.

CD-1 mice = assay: In vivo expression assay, hEPO mRNA in MC3-based LNP; conditions: iv bolus 0.05 mg/kg, 6 h after injection, 008-7 Cap0-like, others Cap1-like
Method: mRNAs encoding hEPO were synthesized according to the method described in Example 2 above, co-transcriptionally incorporating cap analogs of the disclosure. […] A MC3-based lipid nanoparticle (LNP) formulation of the synthesized mRNA was produced, and was intravenously administered to CD-1 mice (n=3) at a bolus dose of 0.05 mg/kg. The level of hEPO was tested at 6 h, 24 h, or 48 h after injection.

[6] = system: human primary hepatocytes; assay: Cell-based expression in human primary hepatocytes of mRNAs carrying the cap analogs; conditions: mRNA carrying the cap, 5-methoxy uridine; 008-7 Cap0-like, all other caps Cap1-like
eIF4E [7] = molecular target: T1, eIF4E
Method: as §3, §4, §5, §6, §7, §8

[8] = residence time as listed in Table 12
[9] = residence time as listed in Table 13

SMILES | capping %/100 (T7 RNA Polymerase) | Ave norm (mCitrine levels after 3 hours of a cell-free translation assay) (HeLa Lysate [1]) | Kd (eIF4E [3]) | CFT (norm to conc. & capping & cap1), hEPO levels after 3 hours of a cell-free translation assay (HeLa Lysate [4]) | τ (eIF4E [2]; [8]) [s] | IC50 (HeLa Lysate [5]) [nM] | τ (eIF4E [2]; [9]) [s] | koff (eIF4E [7]) [s⁻¹] | also measured
CO[C@@H]1[C@H](O)[C@@H](COP(=O)(O)OP(=O)([S-])OP(=O)(O)OC[C@H]2O[C@@H](n3cnc4c(=O)[nH]c(N)nc43)[C@H](O)[C@@H]2O)O[C@H]1n1c[n+](C)c2c(=O)[nH]c(N)nc21 (single isomer, unassigned) [Compound 005-30 (D2)] | 0.71 (D2) %/100 | 0.84 (D2) | 1100 nM | 1.66 (D2) | – | – | – | – | τ (s) (eIF4E [2]; [8]): 10 (D2) s; τ (s) (eIF4E [2]; [9]): 10.4 (D2) s
C[n+]1cn(C2CN(Cc3ccccc3)CC(COP(=O)(O)OP(=O)([S-])OP(=O)(O)OC[C@H]3O[C@@H](n4cnc5c(=O)[nH]c(N)nc54)[C@H](O)[C@@H]3O)O2)c2nc(N)[nH]c(=O)c21 (stereo partly drawn) [Compound 006-46] | – | 0.77 | – | – | 3.4 | – | – | – | –
BP(=O)(OP(=O)([O-])OC[C@H]1O[C@@H](n2c[n+](C)c3c(=O)[nH]c(N)nc32)[C@H](O)[C@@H]1O)OP(=O)([O-])OC[C@H]1O[C@@H](n2c[n+](C)c3c(=O)[nH]c(N)nc32)[C@H](O)[C@@H]1O [Compound 005-4] | – | 0.24 | 700 to 1000 nM and 1000 nM | – | – | 5000 | – | – | τ (eIF4E [2]): 4.17 s and 4.2 s; koff (eIF4E [2]; read-out: koff (s^−1)): 0.24 s⁻¹
CO[C@H]1[C@@H](O)[C@H](n2c[n+](C)c3c(=O)[nH]c(N)nc32)O[C@@H]1COP(=O)(O)OP(=O)(O)OP(=O)(O)OC[C@H]1O[C@@H](n2cnc3c(=O)[nH]c(N)nc32)[C@H](O)[C@@H]1O [ARCA, m7(3′-Om)GpppG, reference compound] | 0.86 %/100 | – | – | 1.93 | – | – | 0.6 | 1.67 | in vivo hEPO normalized to capping and Cap1 (CD-1 mice): 0.70; h-primHeps norm to Capping and Cap1 [6]: 1.52; Kd (eIF4E [7]): 2000 to 3000 nM
C[n+]1cn([C@@H]2O[C@H](COP(=O)([O-])OP(=O)([O-])OP(=O)(O)OC[C@H]3O[C@@H](n4c[n+](C)c5c(=O)[nH]c(N)nc54)[C@H](O)[C@@H]3O)[C@@H](O)[C@H]2O)c2nc(N)[nH]c(=O)c21 [Compound 005-10] | 0.91 %/100 | – | 2700 nM and 3000 nM | 0.83 | – | 14000 | 3.8 | 0.26 | –
COCCO[C@@H]1[C@H](O)[C@@H](COP(=O)(O)OP(=O)([S-])OP(=O)(O)OC[C@H]2O[C@@H](n3cnc4c(=O)[nH]c(N)nc43)[C@H](O)[C@@H]2O)O[C@H]1n1c[n+](CCOc2ccc(Cl)cc2)c2c(=O)[nH]c(N)nc21 (stereo partly drawn) [Compound 005-34] | 0.94 %/100 | 2.51 | 10 nM | 2.71 | 50 | – | 50 | 0.02 | –
Nc1nc2c(ncn2[C@@H]2O[C@H](COP(=O)(O)OP(=O)([O-])OP(=O)(O)OC[C@H]3O[C@@H](n4c[n+](CCOc5ccc(Cl)cc5)c5c(=O)[nH]c(N)nc54)[C@@H](O)[C@@H]3O)[C@@H](O)[C@H]2O)c(=O)[nH]1 [Compound 005-35] | 1 %/100 | – | – | 1.02 | – | – | 9.1 | – | –
COc1ccc(CN2CC(COP(=O)([O-])OP(=O)(O)OP(=O)(O)OCC3OC(n4cnc5c(=O)[nH]c(N)nc54)C(O)C3O)OC(n3c[n+](C)c4c(=O)[nH]c(N)nc43)C2)cc1 (stereo not drawn) [Compound 006-26] | – | 0.50 | – | – | 3.3 | – | – | – | –
CN1CC(COP(=O)(O)OP(=O)([O-])OP(=O)(O)OC[C@H]2O[C@@H](n3cnc4c(=O)[nH]c(N)nc43)[C@H](O)[C@@H]2O)OC(n2c[n+](CCOc3ccc(Cl)cc3)c3c(=O)[nH]c(N)nc32)C1 (stereo partly drawn) [Compound 006-45] | 0.95 %/100 | 0.74 | – | 0.48 | 11.6 | – | 11.6 | – | –
CO[C@@H]1[C@H](O)[C@@H](COP(=O)(O)OP(=O)([S-])OP(=O)(O)OC[C@H]2O[C@@H](n3cnc4c(=O)[nH]c(N)nc43)[C@H](O)[C@@H]2O)O[C@H]1n1c[n+](C)c2c(=O)[nH]c(N)nc21 (single isomer, unassigned) [Compound 005-30 (D1)] | 0.65 (D1) %/100 | 0.44 (D1); | 700 nM | 0.79 (D1) | – | – | – | – | τ (s) (eIF4E [2]; [8]): 15 (D1); s; τ (s) (eIF4E [2]; [9]): 14.9 (D1) s
CN(C)CCN1CC(COP(=O)(O)OP(=O)([O-])OP(=O)(O)OC[C@H]2O[C@@H](n3cnc4c(=O)[nH]c(N)nc43)[C@H](O)[C@@H]2O)OC(n2c[n+](C)c3c(=O)[nH]c(N)nc32)C1 (stereo partly drawn) [Compound 006-44] | – | 0.31 | – | – | 0.8 | – | – | – | –
CO[C@@H]1[C@H](O)[C@@H](COP(=O)(O)OP(=O)([O-])OP(=O)(O)OC[C@H]2O[C@@H](n3cnc4c(=O)[nH]c(N)nc43)[C@H](O)[C@@H]2O)O[C@H]1n1c[n+](C)c2c(=O)[nH]c(N)nc21 [Compound 005-14] | – | – | 6400 nM and 4000 nM | – | – | 48000 | – | 1.7 | –
CO[C@@H]1[C@H](O)[C@@H](COP(=O)(O)OP(=O)([O-])OP(=O)(O)OC[C@H]2O[C@@H](n3cnc4c(=O)[nH]c(N)nc43)[C@H](O)[C@@H]2O)O[C@H]1n1c[n+](CCOc2ccc(Cl)cc2)c2c(=O)[nH]c(N)nc21 [Compound 005-5] | – | – | 200 nM | – | – | 2000 | – | 0.04 | –
